One data set concerns Rat glioma cells, A15. The experiment in a line: BDix rat tumor model: s.c. A15 glioma tumour response. The conditions noted are these: for T/C Day-14: ΔTVol drug/ΔTVol vehicle. Format: in vivo. From the text:
As the T/CTVol, i.e. [ΔTVOldrug/ΔTVolvehicle].

Data set [1] in a line: Total PAT exposure (AUC) in blood, tissues and tumor of BDix rats. The class given is in vivo, rat. The conditions noted are these: for AUC24-336 hr (total PAT exposure): Example 4, mean ± SD, n = 3, PAT 1.5 mg/kg i.v. day 0, G2 Predn-vehicle or G4 Predn 7 mg/kg p.o. 5 days (D-1).
Description: G4 received prednisolone (Predn) p.o. at 7 mg/kg for 5 consecutive days while G2 received Predn-vehicle only for 5 days.
How the values of data set [2] were obtained:
(§1) They are idendified by ear markings and kept in groups of 4 under normal conditions with access to food and water as libitum. Tumors: Rat glioma cells, A15 (aks 1a2r) are obtained from ECACC. […] Tumors are induced by concentrating 5×10^5 cells in 50 μl and injecting s.c. in the flank of the rats. […] Generally experiments begin when the tumors are >150 mm^3. Patupilone: Patupilone is weighed and dissolved in a vehicle of 30% PEG-300 and 70% normal saline to a final concentration of 1 mg/ml. Patupilone is injected i.v. in the tail vein as a bolus of 2-3 seconds at a dose of 1.5 mg/kg once.
Efficacy and Tolerability: Tumor volume (Tvol) is quantified by change in tumor volume (endpoint vs. starting value in mm^3). As the T/CTVol, i.e. [ΔTVOldrug/ΔTVolvehicle]. The body weight of the rats is measured three times per week.
After 10 days the rats are treated on day-0 once with patupilone (PAT) at 1.5 mg/kg i.v. bolus (G2, G4-G7) or PAT-vehicle (G1 & G3). All rats treated with prednisolone (Predn) received the drug p.o. at 7 mg/kg for 5 consecutive days (except G7 for 3 days only) either 1-day before (G4), on the same day (G7), 1-day after patupilone (G6) or 3-days after patupilone (G5). […]

The subject of another data set is BDix rats. The experiment in a line: Patupilone-induced diarrhea scoring in BDix rats (grade 0-3, AUC days 3-7, days > G1). Conditions: for Diarrh: Days > G1: BDix rats with s.c. A15 glioma; for Diarrhoea reduction (T/C) >G1D3-D6 / Diarrhoea reduction (T/C) AUCD3-D7: PAT 1.5 mg/kg i.v. D0, vs patupilone alone. The method, then:
as §1, with “once. […] The suspension is sonicated for 30 min to achieve a milky suspension for oral administration (5 mL/kg).” for “once.”
Although prednisolone is administered orally daily, the dose and number of days of treatment are different in each experiment. The doses are 1, 3, 7 or 10 mg/kg which is roughly equivalent to 6, 17, 40 and 60 mg/m^2, respectively. When prednisolone and patupilone treatment are on the same day, prednisolone is administered 2-4 hours after treatment with patupilone.
Diarrhea: Diarrhea is monitored daily from day 3 post injection fo patupilone which is on day 0. Diarrhea is scored as follows:
Grade 1: soft but formed stool
Grade 2: soft unformed stool
Thus, each rat on each day of diarrhea (5 days from day […]) is graded 0-3 which allows a semi-quantitative analysis of the effects of different treatment. Two different abalytical methods are applied using a) area under the curve (AUCdays3-7) calculated using the trapezoidal rule as applied by Graphpad Prism (v. 4.0 for Windows) and b) the numbere of days in which diarrhea is graded >1. It is believed that the second approach is a more realistic comparison to the clinic since as described above G≦1 is not really diarrhea, and in the clinic, the major issue is avoiding severe diarrhea, i.e. clinical grades of ≧2.
After 10 days the rats are treated on day-0 once with patupilone (PAT) at 1.5 mg/kg i.v. bolus (G2, G4-G7) or PAT-vehicle (G1 & G3). All rats treated with prednisolone (Predn) received the drug p.o. at 7 mg/kg for 5 consecutive days (except G7 for 3 days only) either 1-day before (G4), on the same day (G7), 1-day after patupilone (G6) or 3-days after patupilone (G5).
Rats receive 7 mg/kg prednisolone (Predn) or the Predn-vehicle p.o. for 5 consecutive days (except G3 for 3 days) starting either on Day-0 (G1-G3) or after 24 hr (D+1) or 24 hr prior to PAT (D−1).

Data set [3] concerns HRPC (hormone-refractory prostate cancer) patients. The data set can be described thus: Clinical trial in HRPC patients: patupilone-induced diarrhea. Format: in vivo, human. Conditions: 10 mg (ca. 5.5 mg/m^2) prednisone per day. How it is done: HRPC (hormone-refractory prostate cancer) patients in a clinical trial are getting 10 mg (ca. 5.5 mg/m^2) prednisone per day.
[4] abbreviates: Example 2, BDix rats with s.c. A15 glioma, PAT 1.5 mg/kg i.v. once + Predn vehicle p.o. 7 days.
Where [5] appears, read: Example 3 G2, BDix rats with s.c. A15 glioma, PAT 1.5 mg/kg i.v. day 0 + Predn vehicle.
[6] abbreviates: Example 3 G2, PAT 1.5 mg/kg i.v. day 0 + Predn vehicle.
Setting [7] is: Example 1, BDix rats, PAT 1.5 mg/kg i.v. once + Predn vehicle p.o. 7 days.
The mark [8] stands for this setting: Example 5 G1, BDix rats, PAT 1.5 mg/kg i.v. Day 0 + Veh-Predn p.o. 5 days (D0).
The mark [9] stands for this setting: Example 3 G3, BDix rats with s.c. A15 glioma, Predn 7 mg/kg p.o. 5 days + PAT vehicle.
Setting [10] is: Example 3 G3, Predn 7 mg/kg p.o. 5 days + PAT vehicle.
Setting [11] is: Example 1, Predn 1 mg/kg (6 mg/m^2) p.o. 7-days from D0.
[12] abbreviates: Example 1, Predn 3 mg/kg (17 mg/m^2) p.o. 7-days from D0.
Setting [13] is: Example 1, Predn 10 mg/kg (60 mg/m^2) p.o. 7-days from D0.
[14] abbreviates: Example 2, Predn 3 mg/kg (17 mg/m^2) p.o. 7-days from D0.
Where [15] appears, read: Example 2, Predn 10 mg/kg (60 mg/m^2) p.o. 7-days from DO.
The mark [16] stands for this setting: Example 3, Predn 7 mg/kg (40 mg/m^2) p.o. 3-days from D0.
The mark [17] stands for this setting: Example 3, Predn 7 mg/kg (40 mg/m^2) p.o. 5-days from D+1.
Where [18] appears, read: Example 3, Predn 7 mg/kg (40 mg/m^2) p.o. 5-days from D−1.
Where [19] appears, read: Example 3, Predn 7 mg/kg (40 mg/m^2) p.o. 7-days from D+3.
Where [20] appears, read: Example 5, Predn 7 mg/kg (40 mg/m^2) p.o. 3-days from D0.
[21] abbreviates: Example 5, Predn 7 mg/kg (40 mg/m^2) p.o. 5-days from D0.
Setting [22] is: Example 5, Predn 7 mg/kg (40 mg/m^2) p.o. 5-days from D+1.
Where [23] appears, read: Example 5, Predn 7 mg/kg (40 mg/m^2) p.o. 5-days from D−1.

Like-named read-outs stand apart in the source and are kept apart here. Marks after values point to notes of the source that are not given here.

Regarding `C/C(=C\c1csc(C)n1)[C@@H]1C[C@@H]2O[C@]2(C)CCC[C@H](C)[C@H](O)[C@@H](C)C(=O)C(C)(C)[C@@H](O)CC(=O)O1` [PAT, epothilone B], the “Tumour Wt” value in the data set on Rat glioma cells, A15 (setting [4]) is 0.83 ± 0.17 g. For the same compound, the “ΔTVol Day-14” value in the data set with Rat glioma cells, A15 (setting [5]) is 277 ± 37. Moreover, the “T/C Day-14” value in the data set with Rat glioma cells, A15 (setting [6]) is on record as 0.35*. In addition, the “AUC24-336 hr (total PAT exposure)” value in data set [1] (Blood) came to 1891 ± 344 ng/h/mL; in data set [1] (Brain), 64948 ± 6237 ng/h/mL; in data set [1] (Caecum), 53911 ± 10512 ng/h/mL; in data set [1] (Jejunum), 57045 ± 3988 ng/h/mL; in data set [1] (Liver), 56278 ± 9988 ng/h/mL; in data set [1] (Tumor), 142437 ± 36429 ng/h/mL. The “BW (g) Day-7” value is 150 ± 3 g in data set [2] (setting [7]) and 163 ± 3 g in data set [2] (setting [8]). Moreover, the Survival in data set [2] (setting [7]) is 6/6; in data set [2] (setting [4]) it was 6/6; in data set [2] (setting [5]), 8/8; in data set [2] (setting [8]) it was 8/8. The “Δ% BW Day-7” value in data set [2] (setting [7]) is −16.3 ± 1.3%; in data set [2] (setting [5]), −18.6 ± 1.3 %; in data set [2] (setting [8]) it was −12.0 ± 1.2%. For the same compound, the “ΔBW (g) Day-7” value in data set [2] (setting [7]) was -29.5 ± 3.1 g. The “BW (g) Day-6” value in data set [2] (setting [4]) is listed as 186 ± 3 g. In data set [2] (setting [4]), the “Δ% BW Day-13” value was −4.1 ± 2.1%. Also, the “BW (g) Day-14” value in data set [2] (setting [5]) turned out to be 179 ± 4 g. In data set [2] (setting [5]), the “Δ% BW Day-14” value is given as −4.4 ± 1.8 %. Besides, the figures for the “Diarrhoea: Days > G1” value in the data set with BDix rats (setting [7]) and with BDix rats (setting [8]) were 2.7 ± 0.2 days and 1.5 ± 0.3 days, respectively. The “Diarrh: Days > G1” value in the data set on BDix rats (Example 2, PAT 1.5 mg/kg i.v. once + Predn vehicle p.o. 7 days) was determined as 1.7 ± 0.3 days; with BDix rats (setting [6]) it was 2.9 ± 0.3 days.

With `C[C@]12C=CC(=O)C=C1CC[C@@H]1[C@@H]2[C@@H](O)C[C@@]2(C)[C@H]1CC[C@]2(O)C(=O)CO` [Predn, prednisolone], the “ΔTVol Day-14” value in the data set on Rat glioma cells, A15 (setting [9]) is listed as 728 ± 93. In the data set on Rat glioma cells, A15 (setting [10]), the “T/C Day-14” value is 0.93. The “Effect of prednisolone on patupilone exposure” value in data set [1] (BDix rats, summary) was “no evidence that prednisolone interferred with significantly with patupilone exposure”. Moreover, the Survival in data set [2] (setting [9]) is reported as 8/8. Besides, in the data set with BDix rats (BDix rats, summary of Examples 1-6), the “Effect on diarrhea caused by an efficacious dose of patupilone” value was “able to reproducibly reduce diarrhea”. In addition, the “Diarrhoea reduction (T/C) >G1D3-D6” value was found to be 0.81 in the data set with BDix rats (setting [11]); 0.13 in the data set on BDix rats (setting [12]); 0.06 with BDix rats (setting [13]); 0 in the data set on BDix rats (setting [14]); 0 in the data set with BDix rats (setting [15]); 0.57 in the data set with BDix rats (setting [16]). Besides, the “Diarrhoea reduction (T/C) >G1D3-D6” value was 0.52 in the data set on BDix rats (setting [17]); 0.65 in the data set with BDix rats (setting [18]); 0.57 in the data set on BDix rats (setting [19]); 0.08 in the data set with BDix rats (setting [20]); 0 in the data set with BDix rats (setting [21]); 0 in the data set with BDix rats (setting [22]). In the data set on BDix rats (setting [23]), the “Diarrhoea reduction (T/C) >G1D3-D6” value is 0. Also, the “Diarrhoea reduction (T/C) AUCD3-D7” value in the data set on BDix rats (setting [11]) is listed as 0.85; in the data set on BDix rats (setting [12]), 0.30; in the data set with BDix rats (setting [13]) it was 0.20; with BDix rats (setting [14]), 0.14; in the data set on BDix rats (setting [15]) it was 0.01; with BDix rats (setting [16]), 0.60. The “Diarrhoea reduction (T/C) AUCD3-D7” value came to 0.57 with BDix rats (setting [17]); 0.61 with BDix rats (setting [18]); 0.75 with BDix rats (setting [19]); 0.11 with BDix rats (setting [20]); 0.03 in the data set on BDix rats (setting [21]); 0.17 with BDix rats (setting [22]). Further, the “Diarrhoea reduction (T/C) AUCD3-D7” value in the data set on BDix rats (setting [23]) worked out at 0.18. For the same compound, the “Diarrh: Days > G1” value in the data set with BDix rats (setting [10]) amounted to 0 days.

Take `C[C@]12C=CC(=O)C=C1CC[C@@H]1[C@@H]2C(=O)C[C@@]2(C)[C@H]1CC[C@]2(O)C(=O)CO` [prednisone]: the “Effect on epothilone B (patupilone)-induced diarrhea” value in data set [3] is “does not seem to have an effect”.

For the origin of these results see patent US20100267682A1, “CORTICOSTEROIDS TO TREAT EPOTHILONE OR EPOTHILONE DERIVATIVE INDUCED DIARRHEA” (NOVARTIS AG, priority 2007, published 2010).
